Source: ChEMBL document CHEMBL1145485, “Immunomodulatory peptide from cystatin, a natural cysteine protease inhibitor, against leishmaniasis as a model macrophage disease” (Antimicrob Agents Chemother, 2007)
Activity calls are given as the source filed them. The calls are words filed in the database; no cut-off is given here.

Tests used:
Macrophage [1] = assay: Reversal of increase in NO release in BALB/c mouse peritoneal macrophages upto 1 uM in presence of anti-peptide antibody; type: functional, cell-based
Macrophage [2] = assay: Increase in NO release in BALB/c mouse peritoneal macrophages upto 1 uM; type: functional, cell-based
Leishmania donovani [3] = assay: Reversal of antileishmanial activity against Leishmania donovani MHOM/IN/1983 infected BALB/c mouse peritoneal macrophages in presence of 2-amino-5,6-dihydro-6-methyl-4H-1,3-thiazine; type: functional, organism-based
Leishmania donovani [4] = assay: Antileishmanial activity against Leishmania donovani AG83 infected BALB/c mouse assessed as reduction of liver burden at 0.5 mg/kg/day, iv in presence of IFN-gamma after 45 days; type: functional; parameters: scale not given: the % may be the effect or the level left
Leishmania donovani [5] = assay: Reversal of antileishmanial activity against Leishmania donovani MHOM/IN/1983 infected BALB/c mouse peritoneal macrophages in presence of anti-peptide antibody; type: functional, organism-based
Leishmania donovani [6] = assay: Antileishmanial activity against Leishmania donovani MHOM/IN/1983 infected BALB/c mouse peritoneal macrophages in presence of IFN-gamma; type: functional, organism-based
Leishmania donovani [7] = assay: Antileishmanial activity against Leishmania donovani AG83 infected BALB/c mouse assessed as reduction of spleen burden at 0.5 mg/kg/day, iv in presence of IFN-gamma after 45 days; type: functional; parameters: scale not given: the % may be the effect or the level left

**Q.** Which Activity (Macrophage [1]) does the source give for H-PVPVDENDEG-OH here?
**A.** Active

**Q.** And the Activity (Macrophage [2])?
**A.** Active

**Q.** And the Activity (Leishmania donovani [3])?
**A.** Active

**Q.** And the Activity (Leishmania donovani [4])?
**A.** 93%

**Q.** What about the Activity (Leishmania donovani [5]) of the same substance?
**A.** Active

**Q.** And the IC50 (Leishmania donovani [6])?
**A.** 0.52 µg/mL

**Q.** And the Activity (Leishmania donovani [7])?
**A.** 95%
